Results as given in PubChem BioAssay (NCI).
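Cultured in 96-well plates, cells were exposed to test compound for 48 hours across five concentrations. TGI: total growth inhibition.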

Assays:
Test in all cases: NCI-60 cell line screen, 48 h
[1] = test system: OVCAR-4 ovarian
[2] = test system: UACC-257 melanoma
[3] = test system: UO-31 renal
[4] = test system: KM20L2 colon
[5] = test system: SK-MEL-2 melanoma
[6] = test system: DLD-1 colon
[7] = test system: LXFL 529 NSCLC
[8] = test system: DMS 114 small cell lung
[9] = test system: HOP-18 NSCLC
[10] = test system: DMS 273 small cell lung
[11] = test system: SF-539 CNS
[12] = test system: SK-OV-3 ovarian
[13] = test system: MCF7 breast
[14] = test system: PC-3 prostate
[15] = test system: MDA-MB-435
[16] = test system: NCI/ADR-RES ovarian
[17] = test system: MDA-N

SMILES | TGI [1] [µM] | TGI [2] [µM] | TGI [3] [µM] | TGI [4] [µM] | TGI [5] [µM] | TGI [6] [µM] | TGI [7] [µM] | TGI [8] [µM] | TGI [9] [µM] | TGI [10] [µM] | TGI [11] [µM] | TGI [12] [µM] | TGI [13] [µM] | TGI [14] [µM] | TGI [15] [µM] | TGI [16] [µM] | TGI [17] [µM]
CCN(CC)Cc1cc(Nc2c3ccccc3nc3c2[nH]c2ccccc23)ccc1O | 3.32 | 4.45 | 3.56 | 2.41 | 2.75 | 5.7 | 3.02 | 3.14 | 5.39 | 1.84 | 2.74 | 6.83 | – | – | – | – | –
CC(=O)CCC[C@@H](C)[C@@H]1O[C@H]([C@@]2(C)CCC(=O)O2)C[C@H]2C(CSc3ccccc3)C(=O)O[C@@H]12 (some centres not stated) | 31.8 | 28.1 | 31.1 | – | 40.6 | – | – | – | – | – | 36.9 | > 100 | 24.9 | 47.6 | 45.6 | 43.7 | 42.2
O=C1CC2(CCC(O)(c3ccc(Cl)cc3)C(C(=O)c3ccc(Cl)cc3)C2)C(=O)c2ccccc2N1 (configuration not stated) | > 100 | 62.6 | 49.9 | – | > 100 | – | – | – | – | – | 11.2 | 35.1 | > 100 | > 100 | > 100 | > 44.5 | 98.1
O=[N+]([O-])C(=C(N1CCOCC1)N1CCOCC1)/C(Cl)=C(\Cl)[N+](=O)[O-] | 30.7 | 10.5 | 18 | – | 32.2 | – | – | – | – | – | 23.8 | > 100 | 7.73 | 32.6 | 23.1 | 54.2 | 25.1
O=[N+]([O-])c1cccc2nccc(NCC(O)CO)c12 (configuration not stated) | 43 | 30 | 37.2 | – | 26 | – | – | – | – | – | 36.9 | 74.9 | 40 | 38.5 | 37.8 | 73.3 | 31.8
CCCCCCCCCCCCCCCCP(=O)(O)OP(=O)(O)OCC1OC(n2cnc3c(N)ncnc32)C(O)C1O (configuration not stated) | > 100 | 60 | 30 | – | > 100 | – | – | – | – | – | 43.5 | > 100 | 45.7 | 52.9 | 96.7 | 98.6 | > 100
C=C[C@@]1(C)CC(=O)[C@]2(O)[C@@]3(C)[C@@H](OC(C)=O)CCC(C)(C)[C@@H]3[C@H](OC(C)=O)[C@H](OC(C)=O)[C@@]2(C)O1 | > 100 | > 100 | > 100 | – | > 100 | – | – | – | – | – | > 100 | > 100 | > 100 | > 100 | > 100 | > 100 | > 100
CCOC(=O)CC[C@@H](NC(=O)c1ccc(N[C@@H]2c3cc4c(cc3C(c3cc(OC)c(O)c(OC)c3)C3C(=O)OC[C@@H]32)OCO4)cc1)C(=O)OCC (some centres not stated) | – | 0.724 | 0.194 | 0.272 | 0.235 | 0.406 | > 10 | – | > 10 | 0.114 | 0.0478 | 0.0656 | – | – | – | – | –
COc1cc2[nH]c(-c3cccc(N(C)C)c3)cc(=O)c2cc1OC | > 100 | > 100 | > 100 | 5.46 | – | > 100 | > 100 | > 49.1 | 9.35 | > 100 | > 21.3 | > 100 | – | – | – | – | –
Cc1ccccc1N(C)S(=O)(=O)c1ccccc1[N+](=O)[O-] | > 100 | > 100 | > 100 | – | > 100 | – | – | – | – | – | > 100 | > 100 | > 100 | > 100 | > 100 | > 100 | > 100
N#CC12C3C4CC5C6C4C1C6C(O)(C53)N2Cc1ccccc1 (configuration not stated) | > 100 | > 100 | > 100 | > 100 | > 100 | > 100 | > 100 | > 100 | > 100 | > 100 | > 100 | > 100 | – | – | – | – | –
CCCCCc1c2nc(c(CCCCC)c3ccc([nH]3)c(CCCCC)c3ccc([nH]3)c(CCCCC)c3nc1C=C3)C=C2 | > 100 | > 100 | > 100 | – | > 100 | – | – | – | – | – | > 100 | > 100 | > 100 | > 100 | > 100 | > 100 | > 100
CC1OC(O[C@H]2CC[C@]3(C)[C@H]4CC=C5[C@@H]6[C@@H](C)[C@H](C)CC[C@]6(C(=O)O)CC[C@@]5(C(=O)O)[C@]4(C)CC[C@H]3C2(C)C)C(O)C(O)C1O (some centres not stated) | > 75 | > 75 | > 75 | – | > 75 | – | – | – | – | – | > 75 | > 75 | > 75 | > 75 | > 75 | > 75 | > 75
CCC(=O)COc1ccc(NC(NC(=O)C(C(F)(F)F)C(F)(F)F)(C(F)(F)F)C(F)(F)F)cc1 | > 100 | > 100 | > 100 | – | 95.5 | – | – | – | – | – | 55.2 | > 100 | > 100 | > 100 | > 100 | 42.7 | 83.9
O=S1(=O)CCN(Cc2ccccc2)/C1=N\S(=O)(=O)c1ccc(Cl)cc1 | 36.2 | 35.7 | 32.5 | – | 53.3 | – | – | – | – | – | 36.1 | > 100 | 42.4 | 36.7 | 36.2 | 35.8 | 32.2
Cc1c2c(n(CCc3ccccc3)c1C)NN=C(C#N)S2(=O)=O | > 100 | > 100 | > 100 | – | > 100 | – | – | – | – | – | > 100 | > 100 | > 100 | > 100 | > 100 | > 100 | > 100
C/C=C(/C)C(=O)O[C@H]1C(C)=C[C@]23C(=O)[C@@H](C=C(COC(C)=O)[C@@H](O)[C@]12O)[C@H]1[C@@H](C[C@H]3C)[C@@]1(C)OC(=O)/C(C)=C\C | 6.33 | 10.4 | 2.16 | – | 6.01 | – | – | – | – | – | 5.88 | 8.2 | 6.11 | 4.75 | 6.6 | 6.82 | 6.35
COC(=O)N/N=C/c1oc(-c2cccc([N+](=O)[O-])c2)c(-c2cccc([N+](=O)[O-])c2)c1[N+](=O)[O-] | > 100 | > 100 | > 100 | > 100 | – | > 100 | > 100 | – | > 100 | > 100 | – | > 100 | – | – | – | – | –
